Laboratory results published in ChEMBL document CHEMBL3870328, “Synthesis of novel Ral inhibitors: An in vitro and in vivo study” (Bioorg Med Chem Lett, 2016).
One block for each compound: values may come before it.

What was measured:
[1] = target: T1, Ras-related protein Ral-A (Homo sapiens) (UniProt P11233); assay: Inhibition of RalA activity in human H2122 spheroids after 4 hrs by RalBP1 pull down assay
T1 sequence (whole entry): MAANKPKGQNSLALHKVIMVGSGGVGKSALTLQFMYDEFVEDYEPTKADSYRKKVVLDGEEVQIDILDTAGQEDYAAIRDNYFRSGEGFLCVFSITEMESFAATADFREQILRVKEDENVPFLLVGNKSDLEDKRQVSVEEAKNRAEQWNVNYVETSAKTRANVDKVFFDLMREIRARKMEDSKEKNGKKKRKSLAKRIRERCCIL

[2] = Half life in ip dosed mouse plasma; format: ADME, organism-based
[3] = Drug uptake in heart of mouse xenografted with human NCI-H2122 cells at 50 mg/kg, ip after 3 hrs by LC-MS/MS analysis; format: ADME, organism-based; details: read-out: Drug uptake
[4] = Drug uptake in lungs of mouse xenografted with human NCI-H2122 cells at 50 mg/kg, ip after 3 hrs by LC-MS/MS analysis; format: ADME, organism-based; details: lung, read-out: Drug uptake
[5] = Drug uptake in brain of mouse xenografted with human NCI-H2122 cells at 50 mg/kg, ip after 3 hrs by LC-MS/MS analysis; format: ADME, organism-based; details: read-out: Drug uptake
[6] = Drug uptake in tumor of mouse xenografted with human NCI-H2122 cells at 50 mg/kg, ip after 3 hrs by LC-MS/MS analysis; format: ADME, organism-based, Neoplasm; details: read-out: Drug uptake
[7] = target: T2, Ras-related protein Ral-B (Homo sapiens) (UniProt P11234); assay: Inhibition of RalB activity in human H2122 spheroids after 4 hrs by RalBP1 pull down assay
T2 sequence (whole entry): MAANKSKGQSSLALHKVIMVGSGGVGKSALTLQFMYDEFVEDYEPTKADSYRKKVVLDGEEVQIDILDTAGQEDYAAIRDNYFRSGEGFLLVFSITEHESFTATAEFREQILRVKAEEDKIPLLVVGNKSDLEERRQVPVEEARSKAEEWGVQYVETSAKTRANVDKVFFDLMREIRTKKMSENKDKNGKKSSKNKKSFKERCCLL

[8] = Cytotoxicity against human NCI-H2122 cells under anchorage-independent condition assessed as cell growth inhibition after 10 days by nitro blue tetrazolium-based microscopic analysis; format: functional; details: NCI-H2122, 240 h
[9] = Drug uptake in kidney of mouse xenografted with human NCI-H2122 cells at 50 mg/kg, ip after 3 hrs by LC-MS/MS analysis; format: ADME, organism-based; details: read-out: Drug uptake
[10] = Drug uptake in liver of mouse xenografted with human NCI-H2122 cells at 50 mg/kg, ip after 3 hrs by LC-MS/MS analysis; format: ADME, organism-based; details: read-out: Drug uptake
[11] = Plasma concentration in mouse xenografted with human NCI-H2122 cells at 50 mg/kg, ip after 3 hrs by LC-MS/MS analysis; format: ADME, organism-based
[12] = Drug level in CD1 mouse liver microsomes treated with 6-amino-4-(2,5-dimethoxyphenyl)-3-(naphthalen-2-yl)-1,4-dihydropyrano[2,3-c]pyrazole-5-carbonitrile at 16.7 uM assessed as CYP450-mediated compound formation in presence of NADPH by LC-MS/MS analysis; format: ADME
[13] = Drug metabolism in mouse xenografted with human NCI-H2122 cells assessed as M7 metabolite formation in tumor at 50 mg/kg, ip after 3 hrs by LC-MS/MS analysis; format: ADME, organism-based, Neoplasm; details: in vivo
[14] = Drug metabolism in mouse xenografted with human NCI-H2122 cells assessed as M7 metabolite formation in kidney at 50 mg/kg, ip after 3 hrs by LC-MS/MS analysis; format: ADME, organism-based; details: in vivo
[15] = Drug metabolism in mouse xenografted with human NCI-H2122 cells assessed as M6 metabolite formation in kidney at 50 mg/kg, ip after 3 hrs by LC-MS/MS analysis; format: ADME, organism-based; details: in vivo
[16] = Drug metabolism in mouse xenografted with human NCI-H2122 cells assessed as M7 metabolite formation in liver at 50 mg/kg, ip after 3 hrs by LC-MS/MS analysis; format: ADME, organism-based; details: in vivo
[17] = Drug metabolism in mouse xenografted with human NCI-H2122 cells assessed as M7 metabolite formation in lungs at 50 mg/kg, ip after 3 hrs by LC-MS/MS analysis; format: ADME, organism-based, Lung; details: in vivo
[18] = Drug metabolism in mouse xenografted with human NCI-H2122 cells assessed as M6 metabolite formation in heart at 50 mg/kg, ip after 3 hrs by LC-MS/MS analysis; format: ADME, organism-based; details: in vivo
[19] = Drug metabolism in mouse xenografted with human NCI-H2122 cells assessed as M6 metabolite formation in liver at 50 mg/kg, ip after 3 hrs by LC-MS/MS analysis; format: ADME, organism-based; details: in vivo
[20] = Drug metabolism in mouse xenografted with human NCI-H2122 cells assessed as M7 metabolite formation in plasma at 50 mg/kg, ip after 3 hrs by LC-MS/MS analysis; format: ADME, organism-based; details: in vivo
[21] = Drug metabolism in mouse xenografted with human NCI-H2122 cells assessed as M6 metabolite formation in lungs at 50 mg/kg, ip after 3 hrs by LC-MS/MS analysis; format: ADME, organism-based, Lung; details: in vivo
[22] = Drug metabolism in CD1 mouse liver microsomes assessed as CYP450-mediated M7 metabolite formation at 16.7 uM up to 60 mins in presence of NADPH by LC-MS/MS analysis; format: ADME; details: 1 h
[23] = Drug metabolism in mouse xenografted with human NCI-H2122 cells assessed as M6 metabolite formation in plasma at 50 mg/kg, ip after 3 hrs by LC-MS/MS analysis; format: ADME, organism-based; details: in vivo
[24] = Drug metabolism in CD1 mouse liver microsomes assessed as CYP450-mediated M6 metabolite formation at 16.7 uM up to 60 mins in presence of NADPH by LC-MS/MS analysis; format: ADME; details: 1 h
[25] = Drug metabolism in mouse xenografted with human NCI-H2122 cells assessed as M7 metabolite formation in heart at 50 mg/kg, ip after 3 hrs by LC-MS/MS analysis; format: ADME, organism-based; details: in vivo
[26] = Drug metabolism in mouse xenografted with human NCI-H2122 cells assessed as M6 metabolite formation in tumor at 50 mg/kg, ip after 3 hrs by LC-MS/MS analysis; format: ADME, organism-based, Neoplasm; details: in vivo
[27] = Drug metabolism in mouse xenografted with human NCI-H2122 cells assessed as M7 metabolite formation in brain at 50 mg/kg, ip after 3 hrs by LC-MS/MS analysis; format: ADME, organism-based; details: in vivo

inhibition [1]: Dose-dependent effect
half-life [2]: < 1.5 h
concentration at 3 h [3]: 2080 ng/g
concentration at 3 h [4]: 1870 ng/g
concentration at 3 h [5]: 1390 ng/g
concentration at 3 h [6]: 1220 ng/g
inhibition [7]: Dose-dependent effect
concentration at 3 h [9]: 2400 ng/g
concentration at 3 h [10]: 4070 ng/g
concentration at 3 h [11]: 5640 ng/mL
SMILES: Cc1nn(C)c2c1C(c1ccc(C(F)(F)F)cc1)C(C#N)=C(N)O2 (centres undefined)
IC50 [8]: 2.2 µM

SMILES: Cc1nn(C)c2c1C(c1ccc(C#N)cc1)C(C#N)=C(N)O2 (centres undefined)
IC50 [8]: 5.6 µM

Drug metabolism [12]: Metabolite_Detected
SMILES: N#CC1=C(N)Oc2[nH]nc(-c3ccc4ccccc4c3)c2C1c1cc(O)ccc1O (centres undefined)

SMILES: Cc1nn(C)c2c1C(c1cccnc1)C(C#N)=C(N)O2 (centres undefined)
IC50 [8]: 8.8 µM

SMILES: Cn1nc(-c2ccccc2)c2c1OC(N)=C(C#N)C2c1ccccc1 (centres undefined)
IC50 [8]: > 10 µM

SMILES: Cc1nn(C)c2c1C(c1ccc(C(C)C)cc1)C(C#N)=C(N)O2 (centres undefined)
IC50 [8]: 4 µM

Drug metabolism [13]: 413 ng/g
Drug metabolism [14]: 839.9 ng/g
Drug metabolism [15]: 350.6 ng/g
Drug metabolism [16]: 2822.9 ng/g
concentration at 3 h [3]: 3540 ng/g
concentration at 3 h [4]: 3180 ng/g
concentration at 3 h [5]: 210 ng/g
Drug metabolism [17]: 487.4 ng/g
concentration at 3 h [6]: 4170 ng/g
Drug metabolism [18]: 52.8 ng/g
Drug metabolism [19]: 2531.5 ng/g
Drug metabolism [20]: 656.2 ng/mL
Drug metabolism [21]: 47.7 ng/g
Drug metabolism [22]: Metabolite_Detected
Drug metabolism [23]: 147.5 ng/mL
concentration at 3 h [9]: 5730 ng/g
Drug metabolism [24]: Metabolite_Detected
concentration at 3 h [10]: 11500 ng/g
concentration at 3 h [11]: 3950 ng/mL
Drug metabolism [25]: 472.6 ng/g
Drug metabolism [26]: 145.5 ng/g
Drug metabolism [27]: 17 ng/g
SMILES: CCCCC(=O)C1c2ccccc2NC2=C(C(=O)CCC2)C1c1ccccc1Cl (centres undefined)

SMILES: COc1ccc(C2C(C#N)=C(N)Oc3c2c(C)nn3C)cc1F (centres undefined)
IC50 [8]: 5.8 µM

SMILES: COc1ccc(-c2nn(C)c3c2C(c2ccccc2)C(C#N)=C(N)O3)cc1 (centres undefined)
IC50 [8]: > 10 µM

SMILES: Cc1nn(C)c2c1C(c1ccc(F)cc1)C(C#N)=C(N)O2 (centres undefined)
IC50 [8]: > 10 µM

SMILES: COc1ccc(-c2nn(-c3ccccc3)c3c2C(c2ccc(F)cc2)C(C#N)=C(N)O3)cc1 (centres undefined)
IC50 [8]: 6 µM

SMILES: N#CC1=C(N)Oc2c(c(-c3ccccc3)nn2-c2ccccc2)C1c1ccccc1 (centres undefined)
IC50 [8]: 4.1 µM

SMILES: COc1ccc(C2C(C#N)=C(N)Oc3c2c(C)nn3-c2ccccc2)cc1 (centres undefined)
IC50 [8]: 4.1 µM

SMILES: Cc1nn(C)c2c1C(c1ccccc1)C(C#N)=C(N)O2 (centres undefined)
IC50 [8]: 9.1 µM

SMILES: COc1ccc(-c2nn(-c3ccccc3)c3c2C(c2ccc(OC)cc2)C(C#N)=C(N)O3)cc1 (centres undefined)
IC50 [8]: 1.1 µM

SMILES: COc1ccc(-c2nn(C)c3c2C(c2ccccc2)C(C#N)=C(N)O3)cc1OC (centres undefined)
IC50 [8]: > 10 µM

SMILES: COc1ccc(-c2nn(C)c3c2C(c2ccc(F)cc2)C(C#N)=C(N)O3)cc1 (centres undefined)
IC50 [8]: > 10 µM

SMILES: Cc1nn(C)c2c1C(c1ccc3c(c1)OCCO3)C(C#N)=C(N)O2 (centres undefined)
IC50 [8]: 8.6 µM

SMILES: Cn1nc(-c2ccccc2)c2c1OC(N)=C(C#N)C2c1cccc(Br)n1 (centres undefined)
IC50 [8]: 1.7 µM

SMILES: COc1ccc(C2C(C#N)=C(N)Oc3c2c(-c2ccccc2)nn3C)cc1 (centres undefined)
IC50 [8]: > 10 µM

SMILES: COc1ccc(C2C(C#N)=C(N)Oc3c2c(-c2ccccc2)nn3-c2ccccc2)cc1 (centres undefined)
IC50 [8]: 3.1 µM

SMILES: Cn1nc(-c2ccccc2)c2c1OC(N)=C(C#N)C2c1cc(F)cc(F)c1 (centres undefined)
IC50 [8]: 6.6 µM

SMILES: Cc1nn(C)c2c1C(c1ccc(-n3ccnc3)cc1)C(C#N)=C(N)O2 (centres undefined)
IC50 [8]: 1.7 µM
